Experimental data from patent US20260199493A1 (priority 2021, published 2026).
Where two headings read alike, the source gives them in different places. Starred links: 1 amine or outer side, 2 acyl side, 3 side chain; linkers in the order of their positions; H or OH if unused. Non-standard residues stand in square brackets, D forms with d. Residues, ends and D or L forms follow the SMILES beside them. Groups on a side chain read outwards from the residue. *: point of attachment. X1 = NC(=O)[C@H](CCCCNC(=O)COCCOCCNC(=O)CCC(=O)NCCOCCOCCCCCCCl)N*; Ala(piperidin-4-yl) = O=C([C@H](CC1CCN([*:3])CC1)N[*:1])[*:2]; Phe(4-guanidino) = N=C(N)Nc1ccc(C[C@H](N)C(=O)O)cc1; 2Nal = N[C@@H](Cc1ccc2ccccc2c1)C(=O)O; Lys(Me2) = CN(C)CCCC[C@H](N)C(=O)O; hArg = N=C(N)NCCCC[C@H](N)C(=O)O; Cit = NC(=O)NCCC[C@H](N)C(=O)O; Agb = N=C(N)NCC[C@H](N)C(=O)O; Agp = N=C(N)NC[C@H](N)C(=O)O; PEG4 = NCCOCCOCCOCCOCCC(=O)O

Legend:
[1] = test system: HaloTag-ActA fusion protein; assay: Chloroalkane penetration assay (HaloTag); format: cell-based; details: HEK293-HaloTag cells, chloroalkane-tagged peptide, 24 h with FBS, then 5 μM TMR-ct
Excerpt: Assay design. HEK293 cells were produced that stably express a HaloTag-ActA fusion protein (“HEK293-HaloTag”) which ensures fusion protein localization to the outer mitochondrial membrane with exposure to the cytosol. The HaloTag protein rapidly reacts covalently with short chloroalkane-containing compounds, occupying the active site and preventing further reactions. The chloroalkane penetration assay utilizes this reactivity in a pulse-chase assay where cells are first treated with cCPPs-chloroalkane of interest, followed by incubation with cell-permeable fluorescent dye tetramethylrhodamine-chloroalkane (“TMR-ct”). If cCPPs have gained access to the cytosol, they will react with HaloTag and prevent it from reacting with TMR-ct. The relative cell-penetrating efficiency of compounds can therefore be determined by their ability to reduce cellular TMR fluorescence after a washout period with this value expressed as IC50.
Cell penetrating peptides. Cell penetrating peptides having the sequences indicated in Table 13 (below) were functionalized on the lysine residue with a chloroalkane tag of the sequence N^1-(2-(2-((5-chlorohexyl)oxy)ethoxy)ethyl-N^4-(2-(2-(2-oxoethoxy)ethoxy)ethyl)succinamide (referred to as “chloroalkane” in Table 13), purified, and prepared as stock solutions in DMSO with concentration determined by A280 or weight as applicable.
Determination of cell-penetrating efficiency. Compounds to be evaluated were prepared as stock solutions in DMSO and diluted in PBS before addition to HEK293-HaloTag ells as a serial dilution from 30 μM to 0.5 nM. Cells were incubated with the compounds at a given concentration for 24 h in the presence of FBS at 37° C. After incubation, cells were washed thoroughly with PBS and to the cells was added fresh, serum-free media containing 5 μM TMR-ct and incubated for 30 min. After incubation, the cells were washed and incubated in fresh media to wash-out any unreacted TMR-ct. Cells were then imaged and quantified for cellular fluorescence using high-content imaging. Values are normalized to vehicle-treated cells and an IC50 calculated using a 4-parameter logarithmic fit in GraphPad PRISM v.8.

[2] = test system: exon 44 of human dystrophin mRNA; assay: Exon 44 skipping by RT-PCR in hDMD mice; format: in vivo; details: hDMD mice, 5 days
Description: The hemizygous mice were further genotyped at Transnetyx. All groups were dosed 5 mL/kg per animal by intravenous (iv) injection and sacrificed after 5 days post injection. All animals were euthanized by CO2 asphyxiation followed by terminal blood collection via cardiac puncture. Maximum obtainable volume of whole blood was collected into lithium heparin tubes and processed to plasma. A portion of plasma was analyzed for clinical chemistries by the Testing Facility (IDEXX) and the rest stored frozen at nominally −70° C. […] Animals were age matched and assigned into eight (8) treatment groups according to Table 15. […] All animals survived until their scheduled euthanasia time. Tissues were collected per protocol. The amount of AC and a cCPP-AC in various tissue samples was quantified by LC-MS. Exon skipping in different tissues were analyzed by RT-PCR and the quantification of exon 44 correction.
Exon Skipping Analysis by RT-PCR: hDMD mice and NHP express full-length human dystrophin mRNA. The delivery of AC can alter the splicing and result in a shortened dystrophin mRNA after exon 44 skipping. The tissues were homogenized using 1 mL of RLT lysis buffer (Qiagen, Cat #79216). The detection of splicing correction process was measured by RT-PCR where extracted RNAs from tissues were first reverse-transcribed into cDNA and further analyzed by one step RT-PCR using the following primer set: forward primer 5′-[…]-3′ (SEQ ID NO: 262) and reverse primer 5′-[…]-3′ (SEQ ID NO: 263). […] Quantification of the relative intensity of the bands corresponding to skipped and unskipped transcripts were performed to assess AC-induced exon-44-skipping efficacy. The degree (percentage) of splicing correction detected by RT-PCR was calculated using the following equation: % correction=(intensity of 493 bp fragment band)/(intensity of 493 bp fragment band+intensity of 641 bp fragment band).

[3] = MDX mice, single IV 20 mg/kg, day 5

## N=C(N)NCCC[C@H]1NC(=O)[C@H](CCCNC(N)=O)NC(=O)[C@@H](CCCNC(=N)N)NC(=O)[C@H](CCCNC(N)=O)NC(=O)[C@H](Cc2ccc3ccccc3c2)NC(=O)[C@@H](Cc2ccccc2)NC(=O)[C@H](Cc2ccccc2)NC(=O)[C@H](CCC(=O)NCCOCCOCCOCCOCCC(=O)N[C@@H](CCCCNC(=O)COCCOCCNC(=O)CCC(=O)NCCOCCOCCCCCCCl)C(N)=O)NC1=O [Compound 1a, cyclo(FfΦ-Cit-r-Cit-rQ)-PEG4-K-NH2] (cyclo([2Nal][Cit][dR][Cit][dR]E([PEG4-X1])F[dF]))
[1]
  IC50: 849 nM

## N=C(N)NCCC[C@H]1NC(=O)[C@H](CC2CCNCC2)NC(=O)[C@@H](CCCNC(=N)N)NC(=O)[C@H](CC2CCNCC2)NC(=O)[C@H](Cc2ccc3ccccc3c2)NC(=O)[C@@H](Cc2ccccc2)NC(=O)[C@H](Cc2ccccc2)NC(=O)[C@H](CCC(=O)NCCOCCOCCOCCOCCC(=O)N[C@@H](CCCCNC(=O)COCCOCCNC(=O)CCC(=O)NCCOCCOCCCCCCCl)C(N)=O)NC1=O [Compound 2a, cyclo(FfΦ-Pia-r-Pia-rQ)-PEG4-K-NH2] (cyclo([2Nal][Ala(piperidin-4-yl)][dR][Ala(piperidin-4-yl)][dR]E([PEG4-X1])F[dF]))
[1]
  IC50: 881 nM

## CN(C)CCCC[C@@H]1NC(=O)[C@H](Cc2ccc3ccccc3c2)NC(=O)[C@@H](Cc2ccccc2)NC(=O)[C@H](Cc2ccccc2)NC(=O)[C@H](CCC(=O)NCCOCCOCCOCCOCCC(=O)N[C@@H](CCCCNC(=O)COCCOCCNC(=O)CCC(=O)NCCOCCOCCCCCCCl)C(N)=O)NC(=O)[C@@H](CCCNC(=N)N)NC(=O)[C@H](CCCCN(C)C)NC(=O)[C@@H](CCCNC(=N)N)NC1=O [Compound 3a, cyclo(FfΦ-Dml-r-Dml-rQ)-PEG4-K-NH2] (cyclo(F[dF][2Nal][Lys(Me2)][dR][Lys(Me2)][dR]E([PEG4-X1])))
[1]
  IC50: 932 nM

## N=C(N)NCCC[C@H]1NC(=O)[C@H](CNC(=N)N)NC(=O)[C@@H](CCCNC(=N)N)NC(=O)[C@H](CNC(=N)N)NC(=O)[C@H](Cc2ccc3ccccc3c2)NC(=O)[C@@H](Cc2ccccc2)NC(=O)[C@H](Cc2ccccc2)NC(=O)[C@H](CCC(=O)NCCOCCOCCOCCOCCC(=O)N[C@@H](CCCCNC(=O)COCCOCCNC(=O)CCC(=O)NCCOCCOCCCCCCCl)C(N)=O)NC1=O [Compound A, cyclo(FfΦ-Agp-r-Agp-rQ)-PEG4-K-NH2] (cyclo([2Nal][Agp][dR][Agp][dR]E([PEG4-X1])F[dF]))
[1]
  IC50: 626 nM

## N=C(N)NCCC[C@H]1NC(=O)[C@H](CCNC(=N)N)NC(=O)[C@@H](CCCNC(=N)N)NC(=O)[C@H](CCNC(=N)N)NC(=O)[C@H](Cc2ccc3ccccc3c2)NC(=O)[C@@H](Cc2ccccc2)NC(=O)[C@H](Cc2ccccc2)NC(=O)[C@H](CCC(=O)NCCOCCOCCOCCOCCC(=O)N[C@@H](CCCCNC(=O)COCCOCCNC(=O)CCC(=O)NCCOCCOCCCCCCCl)C(N)=O)NC1=O [Compound B, cyclo(FfΦ-Agb-r-Agb-rQ)-PEG4-K-NH2] (cyclo([2Nal][Agb][dR][Agb][dR]E([PEG4-X1])F[dF]))
[1]
  IC50: 695 nM

## N=C(N)NCCCC[C@@H]1NC(=O)[C@H](Cc2ccc3ccccc3c2)NC(=O)[C@@H](Cc2ccccc2)NC(=O)[C@H](Cc2ccccc2)NC(=O)[C@H](CCC(=O)NCCOCCOCCOCCOCCC(=O)N[C@@H](CCCCNC(=O)COCCOCCNC(=O)CCC(=O)NCCOCCOCCCCCCCl)C(N)=O)NC(=O)[C@@H](CCCNC(=N)N)NC(=O)[C@H](CCCCNC(=N)N)NC(=O)[C@@H](CCCNC(=N)N)NC1=O [Compound C, cyclo(FfΦ-hR-r-hR-rQ)-PEG4-K-NH2] (cyclo([2Nal][hArg][dR][hArg][dR]E([PEG4-X1])F[dF]))
[1]
  IC50: 786 nM

## N=C(N)NCCC[C@H]1NC(=O)[C@H](Cc2ccc(NC(=N)N)cc2)NC(=O)[C@@H](CCCNC(=N)N)NC(=O)[C@H](Cc2ccc(NC(=N)N)cc2)NC(=O)[C@H](Cc2ccc3ccccc3c2)NC(=O)[C@@H](Cc2ccccc2)NC(=O)[C@H](Cc2ccccc2)NC(=O)[C@H](CCC(=O)NCCOCCOCCOCCOCCC(=O)N[C@@H](CCCCNC(=O)COCCOCCNC(=O)CCC(=O)NCCOCCOCCCCCCCl)C(N)=O)NC1=O [Compound D, cyclo(FfΦ-4gp-r-4gp-rQ)-PEG4-K-NH2] (cyclo([2Nal][Phe(4-guanidino)][dR][Phe(4-guanidino)][dR]E([PEG4-X1])F[dF]))
[1]
  IC50: 695 nM

## CCOCc1nc2c(N)nc3ccccc3c2n1CC(C)(C)O [Compound R848, reference compound]
IRF5 protein
  IRF5 protein expression: significantly increases IRF5 Protein expression

## N=C(N)NCCC[C@@H]1NC(=O)[C@H](Cc2ccc3ccccc3c2)NC(=O)[C@@H](Cc2ccccc2)NC(=O)[C@H](Cc2ccccc2)NC(=O)[C@H](CCC(=O)NCCOCCOCCOCCOCCC(=O)N[C@@H](CCCCNC(=O)COCCOCCNC(=O)CCC(=O)NCCOCCOCCCCCCCl)C(N)=O)NC(=O)[C@@H](CCCNC(=N)N)NC(=O)[C@H](CCCNC(=N)N)NC(=O)[C@@H](CCCNC(=N)N)NC1=O [EEV12, cyclo(FfΦRrRrQ)-PEG4-K(chloroalkane)-NH2, reference compound] (cyclo([2Nal]R[dR]R[dR]E([PEG4-X1])F[dF]))
[1]
  IC50: 792 nM

## Ac-KBK-AEEA-K(cyclo[FGFGRGRQ])-AEEA-K(N3)-NH2 [EEV-PMO-MDX-5]
Exon 23 of DMD; mouse, in vivo, iv, 20 mg/kg
  exon skipping in heart vs diaphragm, tibialis anterior, triceps: a lower level of exon skipping in heart tissue

## Ac-PKKKRKV-AEEA-K(cyclo[FGFGRGRQ])-AEEA-K(N3)-NH2 [EEV-PMO-MDX-4]
Exon 23 of DMD; [3]
  exon skipping in heart vs diaphragm, tibialis anterior, triceps: a lower level of exon skipping in heart tissue

## Ac-PKKKRKV-AEEA-K(cyclo[FGFGRGRQ])-PEG12-OH [EEV-PMO-IRF5-1]
IRF5 protein; RAW 264.7 cells, all tested concentrations
  IRF-5 protein expression compared to cells stimulated with R848: significant reduction in IRF-5 protein expression
IRF5 protein; mouse macrophage cells, 30 μM, 10 μM and 3 μM
  IRF5 protein levels: statistically significant reduction of IRF5 protein levels

## Ac-PKKKRKV-AEEA-K(cyclo[FfFGRGRQ])-AEEA-K(N3)-NH2 [EEV-PMO-MDX-7]
Exon 23 of DMD; [3]
  exon skipping in heart vs diaphragm, tibialis anterior, triceps: a lower level of exon skipping in heart tissue

## Ac-PKKKRKV-AEEA-K(cyclo[GfFGrGrQ])-AEEA-K(N3)-NH2 [EEV-PMO-MDX-6]
Exon 23 of DMD; [3]
  exon skipping in heart vs diaphragm, tibialis anterior, triceps: a lower level of exon skipping in heart tissue

## Ac-PKKKRKV-AEEA-K(cyclo[GfFGrGrQ])-PEG12-OH [EEV-PMO-DMD44-2]
[2]; 10 mpk IV, Diaphragm
  exon skipping: 14%
[2]; 10 mpk IV, TiA
  exon skipping: 22%
[2]; 10 mpk IV, Triceps
  exon skipping: 17%
[2]; 10 mpk IV, heart
  exon skipping: 0%
[2]; 20 mpk IV, Diaphragm
  exon skipping: 35%
[2]; 20 mpk IV, TiA
  exon skipping: 58%
[2]; 20 mpk IV, Triceps
  exon skipping: 44
[2]; 20 mpk IV, heart
  exon skipping: 2%
[2]; 40 mpk IV, Diaphragm
  exon skipping: 83%
[2]; 40 mpk IV, TiA
  exon skipping: 95%
[2]; 40 mpk IV, Triceps
  exon skipping: 92%
[2]; 40 mpk IV, heart
  exon skipping: 17%
[2]; 80 mpk IV, Diaphragm
  exon skipping: 99%
[2]; 80 mpk IV, TiA
  exon skipping: 99%
[2]; 80 mpk IV, Triceps
  exon skipping: 98%
[2]; 80 mpk IV, heart
  exon skipping: 79%
[2]; IV
  minimum efficacious dose in the heart: 40 mpk
